Target: T1, wild-type human cardiac sodium channel, hNav1.5 (Homo sapiens, UniProt Q14524)
Assay: Peak INa screening assay (tonic block and use-dependent block)
Type: cell-based
Conditions: tonic block of Peak INa, 0.1 Hz, holding -100 mV, read-out: Peak TB 3 uM
Method: (§1) The cardiac late sodium current (Late INa) and peak sodium current (Peak INa) assays are performed on an automated electrophysiology platform, QPatch 16X or QPatch HT (Sophion Bioscience, Copenhagen, Denmark) using the whole cell patch clamp technique to measure currents through the cell membrane. The assay uses an HEK293 (human embryonic kidney) cell line heterologously expressing the wild-type human cardiac sodium channel, hNav1.5, purchased from Millipore (Billerica, Mass.). No beta subunits were coexpressed with the Na channel alpha subunit. Cells are maintained with standard tissue culture procedures and stable channel expression is maintained with 400 μg/mL Geneticin in the culture medium. Experiments are carried out at 23-25° C.
(§2) For both the Late INa and Peak INa assays, series resistance compensation is set to 100% and series resistance and whole-cell compensation are performed automatically. Currents are digitized at 25 kHz and low-pass filtered at 5 kHz and stored in the Sophion Bioscience Oracle database (Sophion Bioscience, Copenhagen, Denmark). Analysis is performed using QPatch Assay software and data are compiled in Excel 2010 (Microsoft, Seattle, Wash., U.S.A.).
(§3) Compound stocks are routinely made by the Gilead Sample Bank in vials to 10 mM in dimethyl sulfoxide (DMSO). In some cases, when compounds are not soluble in DMSO, they are made in 100% ethanol. Stocks are sonicated as necessary. The extracellular solution for screening Late INa is composed of: 140 mM NaCl, 4 mM KCl, 1.8 mM CaCl2, 1 mM MgCl2, 10 mM HEPES and 10 mM Dextrose with pH adjusted to 7.35 using NaOH. The intracellular solution contains: 105 mM CsF, 20 mM CsCl, 10NaF, 2 mM EGTA, 10 mM HEPES and 10 mM Dextrose with pH adjusted to 7.35 with CsOH. Compounds are diluted in extracellular solution using a MicroLab Nimbus (Hamilton Robotics, Reno, Nev.) to between 0.3 and 3 μM in glass vials and transferred to glass well plates before robotic addition to the cells. The 0 mM Na extracellular solution (0Na-ECF) used at the end of each experiment for the Late INa and Peak INa assays to measure baseline current contains: 140 Choline-Cl; 4 mM KCl, 1.8 mM CaCl2; 1 mM MgCl2; 10 mM HEPES and 10 mM Dextrose with pH was adjusted to 7.35 with CsOH.
Compounds were evaluated for their effect Nav1.5 Peak INa. It is contemplated that the compounds of Formula I avoid significant block of peak INa. Since the peak INa in the cells used herein can be very large, introducing artifacts in the recording, the concentration of Na^+ in the bath can be reduced to 40 mM by isosmotic replacement of Na^+ with Choline (see below).
Tonic Block (TB) of Peak INa was measured using a voltage step to −20 mV from a holding potential of −100 mV at a low stimulation frequency of 0.1 Hz. Use-Dependent Block (UDB) of Peak INa was measured during pulse number 50 of a pulse train (−20 mV, 20 ms, 50 pulses, 3 Hz) from a holding potential of −100 mV.
The extracellular solution for screening Peak INa is composed of: 40 mM NaCl, 100 mM Choline-Cl, 4 mM KCl, 1.8 mM CaCl2, 1 mM MgCl2 10 mM HEPES and 10 mM Dextrose with pH adjusted to 7.35 using NaOH. The intracellular solution used for the Peak INa assay is the same as outlined for the Late INa assay (see above).
After establishing the whole cell recording configuration, channels were stimulated to open with low frequency (0.1 Hz) so that the recording can be monitored and the extent to which the recording has stabilized can be assessed.
The test compound is then applied at 1 or 3 μM and was added 2 times at 60 second intervals. After the second compound addition, a 200 second wait period was imposed to allow for equilibration. Voltage protocols for TB and UDB are were performed in the absence and presence of compound and TB and UDB are calculated with respect to the compound free condition. Both TB and UDB were analyzed by incorporating rundown correction for the peak INa.

T1 sequence (Q14524 whole entry): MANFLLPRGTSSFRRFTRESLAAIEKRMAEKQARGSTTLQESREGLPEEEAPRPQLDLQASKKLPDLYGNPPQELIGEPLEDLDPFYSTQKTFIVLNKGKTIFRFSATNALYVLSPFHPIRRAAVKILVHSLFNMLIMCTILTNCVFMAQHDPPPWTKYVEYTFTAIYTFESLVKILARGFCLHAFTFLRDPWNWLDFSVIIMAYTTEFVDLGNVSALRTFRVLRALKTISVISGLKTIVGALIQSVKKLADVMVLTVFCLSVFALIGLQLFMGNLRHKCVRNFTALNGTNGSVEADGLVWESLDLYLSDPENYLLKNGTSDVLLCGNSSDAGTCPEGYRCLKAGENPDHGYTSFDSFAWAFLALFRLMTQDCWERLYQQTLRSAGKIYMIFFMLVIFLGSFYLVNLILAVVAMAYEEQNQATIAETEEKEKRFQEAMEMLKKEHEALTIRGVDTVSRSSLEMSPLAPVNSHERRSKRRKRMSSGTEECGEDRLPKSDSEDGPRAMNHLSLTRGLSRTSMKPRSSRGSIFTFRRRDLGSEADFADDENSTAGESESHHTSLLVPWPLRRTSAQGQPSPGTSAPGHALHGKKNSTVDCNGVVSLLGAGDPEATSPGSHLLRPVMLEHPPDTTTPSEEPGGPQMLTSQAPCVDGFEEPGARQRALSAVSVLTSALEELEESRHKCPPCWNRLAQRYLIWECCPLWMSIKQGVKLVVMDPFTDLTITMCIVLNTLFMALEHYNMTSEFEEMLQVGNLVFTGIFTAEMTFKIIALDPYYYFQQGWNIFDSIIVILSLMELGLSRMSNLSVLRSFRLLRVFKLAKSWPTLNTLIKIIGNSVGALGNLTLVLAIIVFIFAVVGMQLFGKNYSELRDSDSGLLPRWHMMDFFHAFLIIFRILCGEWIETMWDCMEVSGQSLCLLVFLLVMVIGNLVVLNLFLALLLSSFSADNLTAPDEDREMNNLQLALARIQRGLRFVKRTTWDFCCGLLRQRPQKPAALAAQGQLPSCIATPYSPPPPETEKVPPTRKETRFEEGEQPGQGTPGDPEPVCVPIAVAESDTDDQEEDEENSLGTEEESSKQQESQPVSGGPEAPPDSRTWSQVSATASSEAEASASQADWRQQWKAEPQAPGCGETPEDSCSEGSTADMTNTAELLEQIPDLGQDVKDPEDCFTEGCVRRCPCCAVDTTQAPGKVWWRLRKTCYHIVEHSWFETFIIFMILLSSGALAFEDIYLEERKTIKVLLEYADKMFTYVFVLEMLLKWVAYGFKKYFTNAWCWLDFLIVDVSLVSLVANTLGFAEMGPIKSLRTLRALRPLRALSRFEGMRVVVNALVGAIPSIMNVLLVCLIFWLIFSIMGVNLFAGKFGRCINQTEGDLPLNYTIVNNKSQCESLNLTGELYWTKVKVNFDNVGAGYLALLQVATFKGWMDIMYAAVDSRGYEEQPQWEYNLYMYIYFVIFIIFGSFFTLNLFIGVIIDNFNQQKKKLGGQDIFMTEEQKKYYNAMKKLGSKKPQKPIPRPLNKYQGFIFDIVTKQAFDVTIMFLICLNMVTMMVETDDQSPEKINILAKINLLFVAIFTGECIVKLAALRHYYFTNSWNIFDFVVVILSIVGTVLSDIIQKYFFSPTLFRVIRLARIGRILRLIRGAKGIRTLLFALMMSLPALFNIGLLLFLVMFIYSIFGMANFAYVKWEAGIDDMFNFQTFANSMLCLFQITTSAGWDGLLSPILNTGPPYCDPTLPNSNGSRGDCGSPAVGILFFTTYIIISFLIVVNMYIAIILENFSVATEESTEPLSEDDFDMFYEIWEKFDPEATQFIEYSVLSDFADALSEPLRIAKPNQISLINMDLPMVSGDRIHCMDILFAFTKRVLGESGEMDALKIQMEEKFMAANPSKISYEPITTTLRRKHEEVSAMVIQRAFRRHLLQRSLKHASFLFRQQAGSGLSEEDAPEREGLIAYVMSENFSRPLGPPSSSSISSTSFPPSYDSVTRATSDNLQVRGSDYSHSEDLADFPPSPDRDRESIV

Compound	inhibition at 3 µM
Fc1cc(OC(F)(F)F)ccc1-c1ccc2onc(OCc3ncccn3)c2c1 [Example 2, 5-(2-fluoro-4-(trifluoromethoxy)phenyl)-3-(pyrimidin-2-ylmethoxy)benzo[d]isoxazole]	66.1%

Same assay, conditions: use-dependent block of Peak INa, 3 Hz, pulse 50, read-out: Peak UDB 3 Hz 3 uM

Compound	inhibition at 3 µM
Fc1cc(OC(F)(F)F)ccc1-c1ccc2onc(OCc3ncccn3)c2c1 [Example 2, 5-(2-fluoro-4-(trifluoromethoxy)phenyl)-3-(pyrimidin-2-ylmethoxy)benzo[d]isoxazole]	27.9%

Target: T1, wild-type human cardiac sodium channel, hNav1.5
Assay: Late INa screening assay (QPatch whole cell patch clamp, Tefluthrin-induced late current)
Type: cell-based
Conditions: 1 uM; HEK293 hNav1.5; percent block of late INa
Method: as §1, §2, §3
For the Late INa assay, sodium channels are activated every 10 seconds (0.1 Hz) by depolarizing the cell membrane to −20 mV for 250 milliseconds (ms) from a holding potential of −120 mV.
Compounds were tested to determine their activity in blocking the late sodium current. Late INa was generated by adding 10 μM Tefluthrin (pyrethroid) to the extracellular solution. For the purposes of the screening, Late INa is defined as the mean current between […] during the voltage step to −20 mV. After establishing the whole cell recording configuration, Late INa activator is added to each well 4 times over a 15 minute period so that the late component of the Na current reaches a stable value. Compounds were then added (typically at 0.3 or 1 μM), in the presence of the Late Na^+ activator, with 3 additions over the course of 5 minutes. Measurements were made at the end of exposure to the third compound addition and values were normalized to the current level when all Na^+ was removed from the extracellular solution after two additions of 0Na-ECF.
Results are reported as percent block of late INa and results were analyzed by incorporating rundown correction for the Late INa.

Compound	inhibition at 1 µM
c1cnc(COc2noc3ccc(-c4ccc(C5CC5)nc4)cc23)nc1 [Example 20, 5-(6-cyclopropylpyridin-3-yl)-3-(pyrimidin-2-ylmethoxy)benzo[d]isoxazole]	28.8%
Cc1cc(OC(F)(F)F)ccc1-c1cc2c(OCc3ncccn3)noc2cc1F [Example 34, 6-fluoro-5-(2-methyl-4-(trifluoromethoxy)phenyl)-3-(pyrimidin-2-ylmethoxy)benzo[d]isoxazole]	21%
COc1cc2onc(OCc3ncccn3)c2cc1-c1ccc(OC(F)(F)F)cc1 [Example 11, 6-methoxy-3-(pyrimidin-2-ylmethoxy)-5-(4-(trifluoromethoxy)phenyl)benzo[d]isoxazole]	30%
Cc1nccn1-c1noc2ccc(-c3ccc(OC(F)(F)F)cc3)cc12 [Example 138, 3-(2-methyl-1H-imidazol-1-yl)-5-(4-(trifluoromethoxy)phenyl)benzo[d]isoxazole]	29.8%
FC(F)(F)Oc1ccc(-c2ccc3onc(OCc4c[nH]nn4)c3c2)cc1 [Example 83, 3-((1H-1,2,3-triazol-4-yl)methoxy)-5-(4-(trifluoromethoxy)phenyl)benzo[d]isoxazole]	23.7%
Fc1cc(OC(F)(F)F)ccc1-c1ccc2onc(OCc3ncccn3)c2c1 [Example 2, 5-(2-fluoro-4-(trifluoromethoxy)phenyl)-3-(pyrimidin-2-ylmethoxy)benzo[d]isoxazole]	54.6%
FC(F)(F)Oc1ccc(-c2ccc3onc(OCc4nccc(C(F)(F)F)n4)c3c2)cc1 [Example 86, 5-(4-(trifluoromethoxy)phenyl)-3-((4-(trifluoromethyl)pyrimidin-2-yl)methoxy)benzo[d]isoxazole]	21.9%
Cc1nc(COc2noc3ccc(-c4ccc(OC(F)(F)F)cc4)cc23)c(C)o1 [Example 52, 3-((2,5-dimethyloxazol-4-yl)methoxy)-5-(4-(trifluoromethoxy)phenyl)benzo[d]isoxazole]	24.3%
Cc1cc(-c2cc3c(OCc4ncccn4)noc3cc2F)ccc1OC(F)(F)F [Example 32, 6-fluoro-5-(3-methyl-4-(trifluoromethoxy)phenyl)-3-(pyrimidin-2-ylmethoxy)benzo[d]isoxazole]	28.8%
O=C1CC[C@H](CNc2noc3ccc(-c4ccc(OC(F)(F)F)cc4)cc23)N1 [Example 134, (R)-5-(((5-(4-(trifluoromethoxy)phenyl)benzo[d]isoxazol-3-yl)amino)methyl)pyrrolidin-2-one]	21.1%
FC(F)(F)Oc1ccc(-c2ccc3onc(OCc4nccc(N5CCOCC5)n4)c3c2)cc1 [Example 70, 3-((4-morpholinopyrimidin-2-yl)methoxy)-5-(4-(trifluoromethoxy)phenyl)benzo[d]isoxazole]	25.5%
N#CCC1(COc2noc3ccc(-c4ccc(OC(F)(F)F)cc4)cc23)CC1 [Example 54, 2-(1-(((5-(4-(trifluoromethoxy)phenyl)benzo[d]isoxazol-3-yl)oxy)methyl)cyclopropyl)acetonitrile]	29.2%
Cc1cc(C)n(CCOc2noc3ccc(-c4ccc(OC(F)(F)F)cc4)cc23)n1 [Example 69, 3-(2-(3,5-dimethyl-1H-pyrazol-1-yl)ethoxy)-5-(4-(trifluoromethoxy)phenyl)benzo[d]isoxazole]	29.6%
Cc1cc(-c2cccc(OC(F)(F)F)c2)cc2c(OCc3ncccn3)noc12 [Example 19, 7-methyl-3-(pyrimidin-2-ylmethoxy)-5-(3-(trifluoromethoxy)phenyl)benzo[d]isoxazole]	27.5%
O=S1(=O)CCN(CCOc2noc3ccc(-c4ccc(OC(F)(F)F)cc4)cc23)CC1 [Example 85, 4-(2-((5-(4-(trifluoromethoxy)phenyl)benzo[d]isoxazol-3-yl)oxy)ethyl)thiomorpholine 1,1-dioxide]	22.5%
Cc1cccc(COc2noc3c(C)cc(-c4ccc(OC(F)(F)F)cc4)cc23)n1 [Example 106, 7-methyl-3-((6-methylpyridin-2-yl)methoxy)-5-(4-(trifluoromethoxy)phenyl)benzo[d]isoxazole]	28.3%
FC(F)(F)Oc1ccc(-c2ccc3onc(OCCc4ncc[nH]4)c3c2)cc1 [Example 66, 3-(2-(1H-imidazol-2-yl)ethoxy)-5-(4-(trifluoromethoxy)phenyl)benzo[d]isoxazole]	21.9%
Fc1cc(-c2ccc(OC(F)(F)F)cc2)cc2c(OCCn3cncn3)noc12 [Example 84, 3-(2-(1H-1,2,4-triazol-1-yl)ethoxy)-7-fluoro-5-(4-(trifluoromethoxy)phenyl)benzo[d]isoxazole]	23.6%
FC(F)(F)Oc1ccc(-c2ccc3onc(OCc4cc5ccccc5cn4)c3c2)cc1 [Example 82, 3-(isoquinolin-3-ylmethoxy)-5-(4-(trifluoromethoxy)phenyl)benzo[d]isoxazole]	28.1%
O=C1CC[C@@H](COc2noc3ccc(-c4ccc(OC(F)(F)F)cc4)cc23)N1 [Example 62, (S)-5-(((5-(4-(trifluoromethoxy)phenyl)benzo[d]isoxazol-3-yl)oxy)methyl)pyrrolidin-2-one]	28.4%
FC(F)(F)Oc1ccc(-c2ccc3onc(OCc4cnn(-c5ccccn5)c4)c3c2)cc1 [Example 65, 3-((1-(pyridin-2-yl)-1H-pyrazol-4-yl)methoxy)-5-(4-(trifluoromethoxy)phenyl)benzo[d]isoxazole]	27%
CC(C)Nc1noc2ccc(-c3ccc(OC(F)(F)F)cc3)cc12 [Example 131, N-isopropyl-5-(4-(trifluoromethoxy)phenyl)benzo[d]isoxazol-3-amine]	24.8%
Cn1cnc(COc2noc3ccc(-c4ccc(OC(F)(F)F)cc4)cc23)c1 [Example 43, 3-((1-methyl-1H-imidazol-4-yl)methoxy)-5-(4-(trifluoromethoxy)phenyl)benzo[d]isoxazole]	27.1%
COc1ccnc(COc2noc3c(C)cc(-c4ccc(OC(F)(F)F)cc4)cc23)n1 [Example 90, 3-((4-methoxypyrimidin-2-yl)methoxy)-7-methyl-5-(4-(trifluoromethoxy)phenyl)benzo[d]isoxazole]	20.9%

— patent US9416115B2, “Fused heterocyclic compounds as ion channel modulators” (Gilead Sciences, Inc., priority 2013, dated 2016)
